Reference: US11390609B2, “Rho-associated protein kinase inhibitor, pharmaceutical composition comprising same, and preparation method and use thereof” (BEIJING TIDE PHARMACEUTICAL CO., LTD., priority 2017, dated 2022)
pIC50: −log10 of the molar value.

Target: ROCK1 (Homo sapiens (Human), UniProt Q13464)
Experiment: ROCK1 kinase IC50 assay (biological test method similar to the ROCK2 assay)
Assay type: biochemical
Method in brief: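 Compound dilution series (9 concentrations, top solution 10000 nM, DMSO-containing buffer) incubated 2 h at room temperature with kinase, STK-S2 substrate and ATP (5× working solutions of 1.5 µM each). Phosphorylation detected by HTRF (665/615 nm emission ratio) after 1 h; inhibition relative to full-reaction and kinase-free wells, fitted for IC50.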

Chain of ROCK1 (Q13464 whole entry, species assumed): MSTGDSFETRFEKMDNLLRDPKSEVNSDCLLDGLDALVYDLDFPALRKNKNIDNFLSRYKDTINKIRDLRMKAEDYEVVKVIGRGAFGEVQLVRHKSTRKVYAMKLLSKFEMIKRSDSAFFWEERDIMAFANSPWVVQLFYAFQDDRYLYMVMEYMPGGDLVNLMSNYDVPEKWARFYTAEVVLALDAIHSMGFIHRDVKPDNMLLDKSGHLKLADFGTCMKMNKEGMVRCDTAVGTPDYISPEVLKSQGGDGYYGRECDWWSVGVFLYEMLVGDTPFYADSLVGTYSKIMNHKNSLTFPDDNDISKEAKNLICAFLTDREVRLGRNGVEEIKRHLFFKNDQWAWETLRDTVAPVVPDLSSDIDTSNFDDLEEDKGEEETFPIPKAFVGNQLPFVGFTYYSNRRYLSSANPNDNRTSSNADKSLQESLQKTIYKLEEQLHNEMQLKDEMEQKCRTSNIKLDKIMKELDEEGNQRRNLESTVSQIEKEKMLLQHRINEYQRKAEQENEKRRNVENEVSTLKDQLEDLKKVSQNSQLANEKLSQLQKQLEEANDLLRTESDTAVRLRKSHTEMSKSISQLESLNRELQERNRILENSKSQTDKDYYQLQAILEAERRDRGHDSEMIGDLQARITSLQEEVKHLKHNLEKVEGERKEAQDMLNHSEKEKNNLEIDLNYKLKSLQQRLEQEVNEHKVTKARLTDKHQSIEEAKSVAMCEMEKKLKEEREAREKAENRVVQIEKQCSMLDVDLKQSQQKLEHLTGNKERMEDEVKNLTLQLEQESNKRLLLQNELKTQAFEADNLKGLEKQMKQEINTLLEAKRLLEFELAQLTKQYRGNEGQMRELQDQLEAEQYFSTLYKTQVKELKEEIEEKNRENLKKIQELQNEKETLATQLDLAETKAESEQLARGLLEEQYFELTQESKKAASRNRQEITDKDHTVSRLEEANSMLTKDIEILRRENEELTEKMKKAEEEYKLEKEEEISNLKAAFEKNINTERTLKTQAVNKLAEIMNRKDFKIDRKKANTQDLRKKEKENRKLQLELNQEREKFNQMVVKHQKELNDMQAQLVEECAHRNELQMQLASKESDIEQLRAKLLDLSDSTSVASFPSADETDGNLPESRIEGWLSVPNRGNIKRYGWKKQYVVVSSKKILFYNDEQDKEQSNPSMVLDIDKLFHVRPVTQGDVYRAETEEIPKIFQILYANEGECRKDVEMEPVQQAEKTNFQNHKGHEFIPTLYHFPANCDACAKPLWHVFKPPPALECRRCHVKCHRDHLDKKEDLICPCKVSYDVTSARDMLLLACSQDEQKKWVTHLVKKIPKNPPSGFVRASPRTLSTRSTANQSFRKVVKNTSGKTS

| SMILES | pIC50 |
| --- | --- |
| CCNC(=O)N1Cc2ccc(-c3nccc(Nc4ccc(-c5cn[nH]c5)cc4)n3)cc2C1 [TDI01411, 5-(4-((4-(1H-pyrazol-4-yl)phenyl)amino)pyrimidin-2-yl)-N-ethylisoindoline-2-carboxamide] | < 5.00 |
| CN(C(=O)c1cc2ccc(-c3nccc(Nc4ccc(-c5cn[nH]c5)cc4)n3)cc2[nH]1)c1ccncc1 [TDI01421, 6-(4-((4-(1H-pyrazol-4-yl)phenyl)-amino)-pyrimidin-2-yl)-N-methyl-N-(pyridin-4-yl)-1H-indole-2-carboxamide] | 5.23 |
| CN(CC(F)(F)F)C(=O)c1cc2ccc(-c3ncc(F)c(Nc4ccc(-c5cn[nH]c5)cc4)n3)cc2[nH]1 [TDI01426, 6-(4-((4-(1H-pyrazol-4-yl)phenyl)amino)-5-fluoropyrimidin-2-yl)-N-methyl-N-(2,2,2-trifluoroethyl)-1H-indole-2-carboxamide] | < 5.00 |
| CN(CC#N)C(=O)c1cc2ccc(-c3nccc(Nc4ccc(-c5cn[nH]c5)cc4)n3)cc2[nH]1 [TDI01430, 6-(4-((4-(1H-pyrazol-4-yl)phenyl)amino)pyrimidin-2-yl)-N-(cyanomethyl)-N-methyl-1H-indole-2-carboxamide] | < 5.00 |
| O=C(c1cc2ccc(-c3nccc(Nc4ccc(-c5cn[nH]c5)cc4)n3)cc2[nH]1)N1CC(F)(F)C1 [TDI01434, (6-(4-((4-(1H-pyrazol-4-yl)phenyl)ami-no)pyrimidin-2-yl)-1H-indol-2-yl)(3,3-difluoroazetidin-1-yl)methanone] | < 5.00 |
| CN(CCC#N)C(=O)c1cc2ccc(-c3nccc(Nc4ccc(-c5cn[nH]c5)cc4)n3)cc2[nH]1 [TDI01442, 6-(4-((4-(1H-pyrazol-4-yl)phenyl)amino)pyrimidin-2-yl)-N-(2-cyanoethyl)-N-methyl-1H-indole-2-carboxamide] | < 5.00 |
| O=C(N1Cc2ccc(-c3nccc(Nc4ccc(-c5cn[nH]c5)cc4)n3)cc2C1)N1CC(F)(F)C1 [TDI01467] | < 5.00 |
| Cn1c(C(=O)N2CC(F)(F)C2)cc2ccc(-c3nccc(Nc4ccc(-c5cn[nH]c5)cc4)n3)cc21 [TDI01470, (6-(4-((4-(1H-pyrazol-4-yl)phenyl)amino)pyrimidin-2-yl)-1-methyl-1H-indol-2-yl)(3,3-difluoroazetidin-1-yl)methanone] | < 5.00 |
| CCN(CC)C(=O)c1cc2ccc(-c3ncc(OC)c(Nc4ccc(-c5cn[nH]c5)cc4)n3)cc2[nH]1 [TDI01823, 6-(4-((4-(1H-pyrazol-4-yl)phenyl)-amino)-5-methoxy-pyrimidin-2-yl)-N,N-diethyl-1H-indole-2-carboxamide] | < 5.00 |
| N#Cc1cnccc1NC(=O)c1cc2ccc(-c3nccc(Nc4ccc(-c5cn[nH]c5)cc4)n3)cc2[nH]1 [TDI01829B, 6-(4-((4-(1H-pyrazol-4-yl)phenyl)amino)pyrimidin-2-yl)-N-(3-cyanopyridin-4-yl)-1H-indole-2-carboxamide] | < 5.00 |
| O=C(c1cc2ccc(-c3nccc(Nc4ccc(-c5cn[nH]c5)c(F)c4)n3)cc2[nH]1)N1CC(F)(F)C1 [TDI01842B, (3,3-difluoroazetidin-1-yl)(6-(4-((3-fluoro-4-(1H-pyrazol-4-yl)phenyl)ami-no)pyrimidn-2-yl)-1H-indol-2-yl)methanone] | 5.56 |
| O=C(NC1CCN(c2ccncc2Cl)CC1)c1cc2ccc(-c3nccc(Nc4ccc(-c5cn[nH]c5)cc4)n3)cc2[nH]1 [TDI01847B, 6-(4-((4-(1H-pyrazol-4-yl)phenyl)-amino)-pyrimidin-2-yl)-N-(1-(3-chloropyridin-4-yl)piperidin-4-yl)-1H-indole-2-carboxamide] | 5.47 |
| Fc1cc(Nc2ccnc(-c3ccc4cc(-c5nccs5)[nH]c4c3)n2)ccc1-c1cn[nH]c1 [TDI01908, N-(3-fluoro-4-(1H-pyrazol-4-yl)phenyl)-2-(2-(thiazol-2-yl)-1H-indol-6-yl)pyrimidin-4-amine] | < 5.00 |

Other lines, results leading:

| pIC50 | SMILES |
| --- | --- |
| 5.22 | O=C(Nc1cccnc1)c1cc2ccc(-c3nccc(Nc4ccc(-c5cn[nH]c5)cc4)n3)cc2[nH]1 [TDI01397, 6-(4-((4-(1H-pyrazol-4-yl)phenyl)-amino)-pyrimidin-2-yl)-N-(pyridin-3-yl)-1H-indole-2-carboxamide] |
| < 5.00 | N#CC1CN(C(=O)c2cc3ccc(-c4nccc(Nc5ccc(-c6cn[nH]c6)cc5)n4)cc3[nH]2)C1 [TDI01398, 1-(6-(4-((4-(1H-pyrazol-4-yl)phenyl)-amino)-pyrimidin-2-yl)-1H-indole-2-carbonyl)-azetidine-3-carbonitrile] |
| 5.43 | CCN(CCO)C(=O)c1cc2ccc(-c3nccc(Nc4ccc(-c5cn[nH]c5)cc4)n3)cc2[nH]1 [TDI01415, 6-(4-((4-(1H-pyrazol-4-yl)phenyl)-amino)-pyrimidin-2-yl)-N-ethyl-N-(2-hydroxyethyl)-1H-indole-2-carboxamide] |
| 5.27 | CN(C(=O)c1cc2ccc(-c3nccc(Nc4ccc(-c5cn[nH]c5)cc4)n3)cc2[nH]1)C1CC(O)C1 (stereo not drawn) [TDI01418, 6-(4-((4-(1H-pyrazol-4-yl)phenyl)amino)pyrimidin-2-yl)-N-(3-hydroxycyclobutyl)-N-methyl-1H-indole-2-carboxamide] |
| 5.03 | CN(C(=O)c1cc2ccc(-c3nccc(Nc4ccc(-c5cn[nH]c5)cc4)n3)cc2[nH]1)C1CCC1 [TDI01420, 6-(4-((4-(1H-pyrazol-4-yl)phenyl)amino)pyrimidin-2-yl)-N-cyclobutyl-N-methyl-1H-indole-2-carboxamide] |
| < 5.00 | O=C(NC1CCOC1)c1cc2ccc(-c3nc(Nc4ccc(-c5cn[nH]c5)cc4)c4sccc4n3)cc2[nH]1 (stereo not drawn) [TDI01423, 6-(4-((4-(1H-pyrazol-4-yl)phenyl)-amino)-thieno-[3,2-d]-pyrimidin-2-yl)-N-(tetrahydro-furan-3-yl)-1H-indole-2-carboxamide] |
| 5.30 | O=C(NC1CCC1)c1cc2ccc(-c3nc(Nc4ccc(-c5cn[nH]c5)cc4)c4sccc4n3)cc2[nH]1 [TDI01424, 6-(4-((4-(1H-pyrazol-4-yl)phenyl)-amino)-thieno-[3,2-d]-pyrimidin-2-yl)-N-cyclobutyl-1H-indole-2-carboxamide] |
| 5.53 | O=C(c1cc2ccc(-c3nccc(Nc4ccc(-c5cn[nH]c5)cc4)n3)cc2[nH]1)N1CCC2(CCNCC2)CC1 [TDI01425, (6-(4-((4-(1H-pyrazol-4-yl)phenyl)-amino)-pyrimidin-2-yl)-1H-indol-2-yl)(3,9-diazaspiro[5.5]undecan-3-yl)methanone] |
| 5.71 | O=C(c1cc2ccc(-c3nccc(Nc4ccc(-c5cn[nH]c5)cc4)n3)cc2[nH]1)N1CC(C(F)(F)F)C1 [TDI01433, (6-(4-((4-(1H-pyrazol-4-yl)phenyl)amino)pyrimidin-2-yl)-1H-indol-2-yl)(3-(trifluoromethyl)azetidin-1-yl)methanone] |
| 5.91 | O=C(c1cc2ccc(-c3nccc(Nc4ccc(-c5cn[nH]c5)cc4)n3)cc2[nH]1)N1CC(C(F)F)C1 [TDI01435, (6-(4-((4-(1H-pyrazol-4-yl)phenyl)amino)pyrimidin-2-yl)-1H-indol-2-yl)(3-(difluoromethyl)azetidin-1-yl)methanone] |
| < 5.00 | O=C(Nc1ccncc1I)c1cc2ccc(-c3nccc(Nc4ccc(-c5cn[nH]c5)cc4)n3)cc2[nH]1 [TDI01829C, 6-(4-((4-(1H-pyrazol-4-yl)phenyl)-amino)-pyrimidin-2-yl)-N-(3-iodopyridin-4-yl)-1H-indole-2-carboxamide] |
| < 5.00 | O=C(c1cc2ccc(-c3nccc(Nc4ccc(-c5cn[nH]c5)cc4)n3)cc2[nH]1)N1CCO[C@@H](CO)C1 [TDI01852] |
| 5.55 | O=C(c1cc2ccc(-c3nccc(Nc4ccc(-c5cn[nH]c5)cc4)n3)cc2[nH]1)N1CCOC[C@H]1CO [TDI01853, (R)-(6-(4-((4-(1H-pyrazol-4-yl)phenyl)-amino)-pyrimidin-2-yl)-1H-indol-2-yl)(3-(hydroxy-methyl)-morpholino)-methanone] |
| 5.27 | C[C@H](CN)NC(=O)c1cc2ccc(-c3nccc(Nc4ccc(-c5cn[nH]c5)cc4)n3)cc2[nH]1 [TDI01855, (R)-6-(4-((4-(1H-pyrazol-4-yl)phenyl)-amino)-pyrimidin-2-yl)-N-(1-aminopropan-2-yl)-1H-indole-2-carboxamide] |
| 5.69 | C[C@@H](CN)NC(=O)c1cc2ccc(-c3nccc(Nc4ccc(-c5cn[nH]c5)cc4)n3)cc2[nH]1 [TDI01856, (S)-6-(4-((4-(1H-pyrazol-4-yl)phenyl)-amino)-pyrimidin-2-yl)-N-(1-aminopropan-2-yl)-1H-indole-2-carboxamide] |
| < 5.00 | Cn1c(C(=O)N2CC(F)(F)C2)cc2ccc(-c3ncc(F)c(Nc4ccc(-c5cn[nH]c5)cc4)n3)cc21 [TDI01932] |
| < 5.00 | O=C(C1CC(F)(F)C1)N1Cc2ccc(-c3ncc(F)c(Nc4ccc(-c5cn[nH]c5)cc4)n3)cc2C1 [TDI01978, (5-(4-((4-(1H-pyrazol-4-yl)phenyl)amino)-5-fluoropyrimidin-2-yl)isoindolin-2-yl)(3,3-difluorocyclobutyl) methanone] |
